Measured values as given in patent publication US10765662B2, “Mono- or di-substituted indole derivatives as dengue viral replication inhibitors” (Janssen Pharmaceuticals, Inc., priority 2015, dated 2020).

Assays:
[1] = test system: DENV-2 16681 strain labeled with enhanced green fluorescent protein; assay: DENV-2 antiviral assay (eGFP fluorescence read-out in Vero cells); assay type: cell-based, Dengue virus; conditions: DENV-2 16681 eGFP, MOI 0.5, 3 days
Description: The antiviral activity of all the compounds of the invention was tested against the DENV-2 16681 strain which was labeled with enhanced green fluorescent protein (eGPF). The culture medium consists of minimal essential medium supplemented with 2% of heat-inactivated fetal calf serum, 0.04% gentamycin (50 mg/mL) and 2 mM of L-glutamine. Vero cells, obtained from ECACC, were suspended in culture medium and 25 μL was added to 384-well plates (2500 cells/well), which already contain the antiviral compounds. Typically, these plates contain a 5-fold serial dilution of 9 dilution steps of the test compound at 200 times the final concentration in 100% DMSO (200 nL). […] Finally, each plate contains wells which are assigned as virus controls (containing cells and virus in the absence of compound), cell controls (containing cells in the absence of virus and compound) and medium controls (containing medium in the absence of cells, virus and compounds). To the wells assigned as medium control, 25 μL of culture medium was added instead of Vero cells. Once the cells were added to the plates, the plates were incubated for 30 minutes at room temperature to allow the cells to distribute evenly within the wells. Next, the plates were incubated in a fully humidified incubator (37° C., 5% CO2) until the next day. Then, DENV-2 strain 16681, labeled with eGFP, was added at a multiplicity of infection (MOI) of 0.5. Therefore, 15 μL of virus suspension was added to all the wells containing test compound and to the wells assigned as virus control. In parallel, 15 μL of culture medium was added to the medium and cell controls. Next, the plates were incubated for 3 days in a fully humidified incubator (37° C., 5% CO2). At the day of the read out, the eGFP fluorescence was measured using an automated fluorescence microscope at 488 nm (blue laser). Using an in-house LIMS system, inhibition dose response curves for each compound were calculated and the half maximal effective concentration (EC50) was determined. Therefore, the percent inhibition (I) for every test concentration is calculated using the following formula: I=100*([…])/(SVC−SCC); ST, SCC and SVC are the amount of eGFP signal in the test compound, cell control and virus control wells, respectively. The EC50 represents the concentration of a compound at which the virus replication is inhibited with 50%, as measured by a 50% reduction of the eGFP fluorescent intensity compared to the virus control. The EC50 is calculated using linear interpolation (Table 1).

in vitro [2] = assay type: cell-based; conditions: African green monkey, CC50
Description: (§1) In parallel, the toxicity of the compounds was assessed on the same plates. Once the read-out for the eGFP signal was done, 40 μL of ATPlite, a cell viability stain, was added to all wells of the 384-well plates. ATP is present in all metabolically active cells and the concentration declines very rapidly when the cells undergo necrosis or apoptosis. The ATPLite assay system is based on the production of light caused by the reaction of ATP with added luciferase and D-luciferin. The plates were incubated for 10 minutes at room temperature. Next, the plates were measured on a ViewLux. The half maximal cytotoxic concentration (CC50) was also determined, defined as the concentration required to reduce the luminescent signal by 50% compared to that of the cell control wells. Finally, the selectivity index (SI) was determined for the compounds, which was calculated as followed: SI=CC50/EC50.

Vero cells = assay: in vitro; assay type: cell-based; conditions: African green monkey
Description: as §1

DENV-1 strain TC974#666 = assay: Tetravalent RT-qPCR assay Protocol A, serotype 1; assay type: cell-based; conditions: Dengue virus, DENV1, 72 h; RT-qPCR serotype 1 TC974#666, Vero cells, day 3
Description: (§2) The antiviral activity of the compounds of the invention was tested against DENV-1 strain TC974#666 (NCPV), DENV-2 strain 16681, DENV-3 strain H87 (NCPV) and DENV-4 strains H241 (NCPV) and EDEN (SG/06K2270DK1/2005; GenBank accession number QG398256) in a RT-qPCR assay. Therefore, Vero cells were infected with either DENV-1, or -2, or -3, or -4 in the presence or absence of test compounds. At day 3 post-infection, the cells were lysed and cell lysates were used to prepare cDNA of both a viral target (the 3′UTR of DENV; Table 2) and a cellular reference gene (β-actin, Table 2). Subsequently, a duplex real time PCR was performed on a Lightcycler480 instrument. The generated Cp value is inversely proportional to the amount of RNA expression of these targets. Inhibition of DENV replication by a test compound results in a shift of Cp's for the 3′UTR gene. On the other hand, if a test compound is toxic to the cells, a similar effect on β-actin expression will be observed. The comparative ΔΔCp method is used to calculate EC50, which is based on the relative gene expression of the target gene (3′UTR) normalized with the cellular housekeeping gene (β-actin). In addition, CC50 values are determined based on the Cp values acquired for the housekeeping gene β-actin.
(§3) The culture medium consisted of minimal essential medium supplemented with 2% of heat-inactivated fetal calf serum, 0.04% gentamycin (50 mg/mL) and 2 mM of L-glutamine. Vero cells, obtained from ECACC, were suspended in culture medium and 75 μL/well was added in 96-well plates (10000 cells/well), which already contain the antiviral compounds. […] In addition, each plate contains wells which are assigned as virus controls (containing cells and virus in the absence of compound) and cell controls (containing cells in the absence of virus and compound). Once the cells were added in the plates, the plates were incubated in a fully humidified incubator (37° C., 5% CO2) until the next day. Dengue viruses serotype-1, 2, 3 and 4 were diluted in order to obtain a Cp of ˜22-24 in the assay. Therefore, 25 μL of virus suspension, was added to all the wells containing test compound and to the wells assigned as virus control. In parallel, 25 μL of culture medium was added to the cell controls. Next, the plates were incubated for 3 days in a fully humidified incubator (37° C., 5% CO2). After 3 days, the supernatant was removed from the wells and the cells were washed twice with ice-cold PBS (˜100 μL). The cell pellets within the 96-well plates were stored at −80° C. for at least 1 day. Next, RNA was extracted using the Cells-to-CT™ lysis kit, according to the manufacturer's guideline (Life Technologies). The cell lysates can be stored at −80° C. or immediately used in the reverse transcription step.
(§4) In preparation of the reverse transcription step, mix A (table 3A) was prepared and 7.57 μL/well was dispensed in a 96-well plate. After addition of 5 μL of the cell lysates, a five minute denaturation step at 75° C. was performed (table 3B). Afterwards, 7.43 μL of mix B was added (table 3C) and the reverse transcription step was initiated (table 3D) to generate cDNA.
(§5) Finally, a RT-qPCR mix was prepared, mix C (table 4A), and 22.02 μL/well was dispensed in 96-well LightCycler qPCR plates to which 3 μL of cDNA was added and the qPCR was performed according to the conditions in table 4B on a LightCycler 480.
(§6) Using the LightCycler software and an in-house LIMS system, dose response curves for each compound were calculated and the half maximal effective concentration (EC50) and the half maximal cytotoxic concentration (CC50) were determined (Tables 5-8).

DENV-2 strain 16681 = assay: Tetravalent RT-qPCR assay Protocol A, serotype 2; assay type: cell-based; conditions: Dengue virus, DENV2, 72 h; RT-qPCR serotype 2 16681, Vero cells, day 3
Description: as §2, §3, §4, §5, §6

DENV-3 strain H87 = assay: Tetravalent RT-qPCR assay Protocol A, serotype 3; assay type: cell-based; conditions: Dengue virus, DENV3, 72 h; RT-qPCR serotype 3 H87, Vero cells, day 3
Description: as §2, §3, §4, §5, §6

DENV-4 strain H241 = assay: Tetravalent RT-qPCR assay Protocol A, serotype 4 H241; assay type: cell-based; conditions: Dengue virus, DENV4, Vero, 72 h
Description: as §2, §3, §4, §5, §6

[3] = test system: DENV-4 strain EDEN (SG/06K2270DK1/2005); assay: Tetravalent RT-qPCR assay Protocol A, serotype 4 EDEN; assay type: cell-based; conditions: Dengue virus, DENV4, 72 h; RT-qPCR serotype 4 EDEN, Vero cells, day 3
Description: as §2, §3, §4, §5, §6

in vitro [4] = assay type: cell-based; conditions: African green monkey
Description: as §2, §3, §6

[5] = Dengue virus, DENV2, Vero, 72 h

Row | Compound | EC50 [1, 5] | CC50 (in vitro [2]) | melting point | EC50 [1] | CC50 (Vero cells) | EC50 (DENV-1 strain TC974#666) | EC50 (DENV-2 strain 16681) | EC50 (DENV-3 strain H87) | EC50 (DENV-4 strain H241) | EC50 [3] | CC50 at 3 days (in vitro [4])
1 | COc1cc(NC(C(=O)c2c[nH]c3c(C)c(Cl)ccc23)c2ccc(Cl)cc2OCCO)cc(S(C)(=O)=O)c1 (racemic) [Compound 5, 2-(4-chloro-2-(2-hydroxyethoxy)phenyl)-1-(6-chloro-7-methyl-1H-indol-3-yl)-2-((3-methoxy-5-(methylsulfonyl)phenyl)amino)ethanone] | 0.1 nM | 4300 nM | 206 °C | – | – | – | – | – | – | – | –
2 | COc1cc(NC(C(=O)c2c[nH]c3ccc(C(F)(F)F)cc23)c2ccc(Cl)cc2OCCO)cc(S(C)(=O)=O)c1 (racemic) [Compound 9, 2-(4-chloro-2-(2-hydroxyethoxy)phenyl)-2-((3-methoxy-5-(methylsulfonyl)phenyl)amino)-1-(5-(trifluoromethyl)-1H-indol-3-yl)ethanone] | 0.1 nM | > 2500 nM | 228 °C | – | – | – | – | – | – | – | –
3 | COc1cc(NC(C(=O)c2c[nH]c3cc(OC)c(OC(F)(F)F)cc23)c2ccc(Cl)cc2OCCO)cc(S(C)(=O)=O)c1 (racemic) [Compound 11, 2-(4-chloro-2-(2-hydroxyethoxy)phenyl)-2-((3-methoxy-5-(methylsulfonyl)phenyl)amino)-1-(6-methoxy-5-(trifluoromethoxy)-1H-indol-3-yl)ethanone] | 0.2 nM | > 2500 nM | 212 °C | – | – | – | – | – | – | – | –
4 | COc1cc(NC(C(=O)c2c[nH]c3cc(Cl)ccc23)c2ccc(Cl)cc2OCCO)cc(S(C)(=O)=O)c1 (single isomer, unassigned) [Compound 2A, 1-(6-chloro-1H-indol-3-yl)-2-(4-chloro-2-(2-hydroxyethoxy)phenyl)-2-((3-methoxy-5-(methylsulfonyl)phenyl)amino)ethanone] | – | – | – | 0.11 nM | 3400 nM | 1.6 nM | 0.14 nM | 18 nM | 74 nM | 1.3 nM | > 2500 nM
5 | COc1cc(NC(C(=O)c2c[nH]c3cc(OC)ccc23)c2ccc(Cl)cc2OCCO)cc(S(C)(=O)=O)c1 (single isomer, unassigned) [Compound 3A, 2-(4-chloro-2-(2-hydroxyethoxy)phenyl)-1-(6-methoxy-1H-indol-3-yl)-2-((3-methoxy-5-(methylsulfonyl)phenyl)amino)ethanone] | – | – | – | 0.32 nM | 5200 nM | 4.2 nM | 0.4 nM | 42 nM | 110 nM | 3.1 nM | 5800 nM
6 | COc1cc(NC(C(=O)c2c[nH]c3c(C)c(F)ccc23)c2ccc(Cl)cc2OCCO)cc(S(C)(=O)=O)c1 (single isomer, unassigned) [Compound 4A, 2-(4-chloro-2-(2-hydroxyethoxy)phenyl)-1-(6-fluoro-7-methyl-1H-indol-3-yl)-2-((3-methoxy-5-(methylsulfonyl)phenyl)amino)ethanone] | – | 3000 nM | – | 0.13 nM | – | 1.7 nM | 0.16 nM | 18 nM | 78 nM | 1.4 nM | > 2500 nM
7 | COc1cc(NC(C(=O)c2c[nH]c3c(C)c(Cl)ccc23)c2ccc(Cl)cc2OCCO)cc(S(C)(=O)=O)c1 (single isomer, unassigned) [Compound 5B, 2-(4-chloro-2-(2-hydroxyethoxy)phenyl)-1-(6-chloro-7-methyl-1H-indol-3-yl)-2-((3-methoxy-5-(methylsulfonyl)phenyl)amino)ethanone] | – | – | – | 0.066 nM | 3400 nM | 1.6 nM | 0.065 nM | 12 nM | 74 nM | 1.1 nM | > 2500 nM
8 | COc1cc(NC(C(=O)c2c[nH]c3cc(OC)c(C)cc23)c2ccc(Cl)cc2OCCO)cc(S(C)(=O)=O)c1 (single isomer, unassigned) [Compound 6A, 2-(4-chloro-2-(2-hydroxyethoxy)phenyl)-2-((3-methoxy-5-(methylsulfonyl)phenyl)amino)-1-(6-methoxy-5-methyl-1H-indol-3-yl)ethanone] | – | 3800 nM | – | 0.13 nM | – | 1.6 nM | 0.21 nM | 17 nM | 53 nM | 1 nM | 4900 nM
9 | COc1cc(NC(C(=O)c2c[nH]c3cc(F)c(F)cc23)c2ccc(Cl)cc2OCCO)cc(S(C)(=O)=O)c1 (single isomer, unassigned) [Compound 7A, 2-(4-chloro-2-(2-hydroxyethoxy)phenyl)-1-(5,6-difluoro-1H-indol-3-yl)-2-((3-methoxy-5-(methylsulfonyl)phenyl)amino)ethanone] | – | – | – | 0.22 nM | 2700 nM | 0.97 nM | 0.21 nM | 11 nM | 64 nM | 0.64 nM | 2900 nM
